Data from patent US20110201596A1, “Methods for Providing Oxidatively Stable Ophthalmic Compositions” (priority 2005, published 2011).
Where a name gives a salt, the structure may show the parent alone.

Test: Stability of ketotifen fumarate in borate buffered saline over autoclave cycles, analysed by HPLC
Assay type: physicochemical
Settings: for % ketotifen: no PAA; for % ketotifen Unsparged: Example 3: buffer with poly(acrylic acid); for % ketotifen Nitrogen Sparged: Example 4: buffer with poly(acrylic acid); for ketotifen stability: after autoclaving
Protocol: A buffer solution was formed by dissolving 8.3 gm NaCl (from Sigma Aldrich), 9.1 gm boric acid (from Mallinckrodt) and 1 gm sodium borate (from Mallinckrodt) in 1 L deionized water (from Milli Q). […] Ketotifen fumarate (from Sigma Aldrich) was added to prepare a solution of approximately 80 ppm in the buffer solution. The ketotifen solution (3 mL) was placed in vials, autoclaved for the number of cycles shown in Table 1, below and analyzed as a function of autoclave cycle (3 replicate per autoclave cycle) using HPLC using an HP1100 and an Agilent Zorbax Eclipse XDB-C18 and Rapid Resolution HT 50×4.6 mm×1.8μ column and the following conditions:
Mobile Phase: • Eluent A: 17% acetonitrile in 0.025 M dihydrogen potassium phosphate buffer • 0.2% triethylamine, 0.13% o-phosphoric acid • Eluent B: 50% acetonitrile in 0.025 M dihydrogen potassium phosphate buffer • 0.2% triethylamine, 0.13% o-phosphoric acid
Example 1 was repeated, except that the buffer solution was sparged (with nitrogen) overnight (˜12 hrs) at about 370 standard cubic centimeter per minute (SCCM) and subsequently transferred to a nitrogen box (<0.5% oxygen). The ketotifen solution of about 90 ppm was prepared and placed in vials as described above, but in nitrogen box. The vials were autoclaved and analyzed as described in Example 1.
Examples 1 and 2 was repeated, except that 10 gm of poly(acrylic acid) (PAA, Mw, 225,000, from Polysciences, Inc., 20% in water) was added to the buffer solution. The vials were autoclaved and analyzed as described in Example 1.

CN1CCC(=C2c3ccccc3CC(=O)c3sccc32)CC1 [ketotifen, Ketotifen fumarate]
% ketotifen (Example 1: ~80 ppm in buffer pH 7.65, unsparged, autoclave cycle 0): 100% | % ketotifen (Example 1: ~80 ppm in buffer pH 7.65, unsparged, autoclave cycle 1): 0% | % ketotifen (Example 1: ~80 ppm in buffer pH 7.65, unsparged, autoclave cycle 2): 0% | % ketotifen (Example 1: ~80 ppm in buffer pH 7.65, unsparged, autoclave cycle 3): 0% | % ketotifen (Example 2: ~90 ppm, buffer nitrogen sparged ~12 hrs, nitrogen box, autoclave cycle 0): 100% | % ketotifen (Example 2: ~90 ppm, buffer nitrogen sparged ~12 hrs, nitrogen box, autoclave cycle 1): 98% | % ketotifen (Example 2: ~90 ppm, buffer nitrogen sparged ~12 hrs, nitrogen box, autoclave cycle 2): 98% | % ketotifen (Example 2: ~90 ppm, buffer nitrogen sparged ~12 hrs, nitrogen box, autoclave cycle 3): 98% | % ketotifen Unsparged (autoclave cycle 0): 100% | % ketotifen Unsparged (autoclave cycle 1): 94% | % ketotifen Unsparged (autoclave cycle 2): 81% | % ketotifen Unsparged (autoclave cycle 3): 66% | % ketotifen Nitrogen Sparged (autoclave cycle 0): 100% | % ketotifen Nitrogen Sparged (autoclave cycle 1): 99% | % ketotifen Nitrogen Sparged (autoclave cycle 2): 99% | % ketotifen Nitrogen Sparged (autoclave cycle 3): 98% | ketotifen stability (buffer sparged and solution kept under nitrogen (Table 2)): 98% | ketotifen stability (unsparged buffer (Table 1)): 0%
